Reference: the NIST ThermoML archive (doi:10.1016/j.jct.2012.09.013)
± gives the expanded uncertainty stated by the source.

Experiments:
[1] = 101.33 kPa, Liquid; for viscosity: Capillary tube (Ostwald / Ubbelohde) method; for speed of sound: Linear variable-path acoustic interferometer; for mass density: Pycnometric method
[2] = mn = molality of the nth substance listed, in mol/kg; conditions: 101 kPa, Liquid, m2 = 0; for viscosity: Capillary tube (Ostwald / Ubbelohde) method; for speed of sound: Linear variable-path acoustic interferometer; for mass density: Pycnometric method

Row | SMILES | viscosity ([1]; 303 K) | speed of sound ([1]; 303 K) | mass density ([1]; 303 K) | viscosity ([1]; 308 K) | speed of sound ([1]; 308 K) | mass density ([1]; 308 K) | viscosity ([1]; 313 K) | speed of sound ([1]; 313 K) | mass density ([1]; 313 K) | viscosity ([2]; 303 K) | speed of sound ([2]; 303 K) | mass density ([2]; 303 K) | viscosity ([2]; 308 K) | speed of sound ([2]; 308 K) | mass density ([2]; 308 K) | viscosity ([2]; 313 K) | speed of sound ([2]; 313 K) | mass density ([2]; 313 K)
1 | CN(C)C=O [dimethylformamide] | 0.7588 ± 0.15 mPa·s | 1442 ± 6 m/s | 941.7 ± 0.7 kg/m3 | 0.7056 ± 0.14 mPa·s | 1432 ± 5.9 m/s | 937.2 ± 0.7 kg/m3 | 0.6353 ± 0.13 mPa·s | 1402 ± 5.8 m/s | 933.6 ± 0.6 kg/m3 | – | – | – | – | – | – | – | – | –
2 | CN(C)C=O [dimethylformamide] + CC(=O)N1N=C(CSc2nc3ccccc3c(=O)n2-c2ccccc2C)OC1(C)c1ccc(C)cc1 | – | – | – | – | – | – | – | – | – | 0.7588 ± 0.15 mPa·s | 1442 ± 6 m/s | 941.7 ± 0.7 kg/m3 | 0.7056 ± 0.14 mPa·s | 1432 ± 5.9 m/s | 937.2 ± 0.7 kg/m3 | 0.6353 ± 0.13 mPa·s | 1402 ± 5.8 m/s | 933.6 ± 0.6 kg/m3
3 | CN(C)C=O [dimethylformamide] + COc1ccc(C2(C)OC(CSc3nc4ccccc4c(=O)n3-c3ccccc3C)=NN2C(C)=O)cc1 | – | – | – | – | – | – | – | – | – | 0.7588 ± 0.15 mPa·s | 1442 ± 6 m/s | 941.7 ± 0.7 kg/m3 | 0.7056 ± 0.14 mPa·s | 1432 ± 5.9 m/s | 937.2 ± 0.7 kg/m3 | 0.6353 ± 0.13 mPa·s | 1402 ± 5.8 m/s | 933.6 ± 0.6 kg/m3
4 | ClC(Cl)Cl [trichloromethane] | 0.6628 ± 0.13 mPa·s | 960 ± 4 m/s | 1475.3 ± 20 kg/m3 | 0.6279 ± 0.13 mPa·s | 950.8 ± 4 m/s | 1470.8 ± 20 kg/m3 | 0.5781 ± 0.12 mPa·s | 932.4 ± 3.9 m/s | 1465.8 ± 20 kg/m3 | – | – | – | – | – | – | – | – | –
5 | ClC(Cl)Cl [trichloromethane] + CC(=O)N1N=C(CSc2nc3ccccc3c(=O)n2-c2ccccc2C)OC1(C)c1ccc(C)cc1 | – | – | – | – | – | – | – | – | – | 0.6628 ± 0.13 mPa·s | 960 ± 4 m/s | 1475.3 ± 20 kg/m3 | 0.6279 ± 0.13 mPa·s | 950.8 ± 4 m/s | 1470.8 ± 20 kg/m3 | 0.5781 ± 0.12 mPa·s | 932.4 ± 3.9 m/s | 1465.8 ± 20 kg/m3
6 | ClC(Cl)Cl [trichloromethane] + COc1ccc(C2(C)OC(CSc3nc4ccccc4c(=O)n3-c3ccccc3C)=NN2C(C)=O)cc1 | – | – | – | – | – | – | – | – | – | 0.6628 ± 0.13 mPa·s | 960 ± 4 m/s | 1475.3 ± 20 kg/m3 | 0.6279 ± 0.13 mPa·s | 950.8 ± 4 m/s | 1470.8 ± 20 kg/m3 | 0.5781 ± 0.12 mPa·s | 932.4 ± 3.9 m/s | 1465.8 ± 20 kg/m3
